Assay results as given in BindingDB's records for PubMed 9067310 (Institut De Recherches Servier, 1997).

Legend:
[1] = target: T1, 5-hydroxytryptamine receptor 1A (Homo sapiens, UniProt P08908)
T1 sequence (P08908 whole entry): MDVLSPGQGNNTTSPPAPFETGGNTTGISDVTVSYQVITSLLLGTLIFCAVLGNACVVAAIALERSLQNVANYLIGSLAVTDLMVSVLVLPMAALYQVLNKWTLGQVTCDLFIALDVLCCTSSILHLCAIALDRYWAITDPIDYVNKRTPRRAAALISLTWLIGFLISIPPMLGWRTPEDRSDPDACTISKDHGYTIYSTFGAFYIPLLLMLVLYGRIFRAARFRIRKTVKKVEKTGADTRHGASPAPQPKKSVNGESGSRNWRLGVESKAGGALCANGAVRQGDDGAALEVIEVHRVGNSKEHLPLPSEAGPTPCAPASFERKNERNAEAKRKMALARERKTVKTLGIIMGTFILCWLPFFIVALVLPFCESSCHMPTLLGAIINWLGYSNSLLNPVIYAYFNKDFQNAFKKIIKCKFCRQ

D(2) dopamine receptor = D(2) dopamine receptor (Homo sapiens, UniProt P14416)
Sequence of D(2) dopamine receptor (P14416 whole entry): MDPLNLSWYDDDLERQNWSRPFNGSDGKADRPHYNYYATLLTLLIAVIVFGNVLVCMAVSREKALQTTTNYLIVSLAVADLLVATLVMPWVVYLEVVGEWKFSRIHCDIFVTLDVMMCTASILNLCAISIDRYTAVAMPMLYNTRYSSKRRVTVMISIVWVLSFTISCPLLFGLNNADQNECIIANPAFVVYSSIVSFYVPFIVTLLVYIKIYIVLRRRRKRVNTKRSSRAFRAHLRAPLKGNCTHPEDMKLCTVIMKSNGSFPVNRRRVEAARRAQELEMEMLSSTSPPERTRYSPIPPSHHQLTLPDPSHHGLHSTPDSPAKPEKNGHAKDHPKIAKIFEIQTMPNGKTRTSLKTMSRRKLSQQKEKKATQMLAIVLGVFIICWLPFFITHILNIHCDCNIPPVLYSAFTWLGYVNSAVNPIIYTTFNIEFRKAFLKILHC

Row | Compound | Ki [1] | Ki (D(2) dopamine receptor)
1 | CCCN(CCC)C1CCc2ccc(O)cc2C1 (stereo not drawn) | 0.265 µM | –
2 | CC(C)(C)NCC(O)COc1cccc2c1SCCC2 (single isomer, unassigned; (-)) [TERTATOLOL(-)] | 0.0067 µM | > 10 µM
